Values joined by “and” are separate entries in the source; they are usually repeats but may differ in a detail not shown here. Equal values may be shown once. Toxic doses and inconclusive results are not listed.
Test system: P388 leukemia ip, CD2F1 mice, survival T/C
Assay: NCI In Vivo Anticancer Drug Screen. Data for tumor model P388 Leukemia (intraperitoneal) in CD2F1 (CDF1) mice
Conditions: endpoint: median survival time, higher = longer survival
Procedure, shortened: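 Mice carrying the transplanted tumor received test compound or vehicle. Survival was recorded in each group, and the value is the treated-group measurement divided by that of the vehicle-treated control group.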

[1] = dose: 50.0 mg/kg/injection, schedule: Q01DX005 (ip), vehicle: saline with Tween-80
[2] = dose: 100.0 mg/kg/injection, schedule: Q01DX005 (ip), vehicle: saline with Tween-80
[3] = dose: 200.0 mg/kg/injection, schedule: Q01DX005 (ip), vehicle: saline with Tween-80
[4] = dose: 60.0 mg/kg/injection, schedule: Q01DX005 (ip), vehicle: saline with Tween-80
[5] = dose: 240.0 mg/kg/injection, schedule: Q01DX005 (ip), vehicle: saline with Tween-80
[6] = dose: 100.0 mg/kg/injection, schedule: Q04DX003 (ip), vehicle: saline with Tween-80
[7] = dose: 200.0 mg/kg/injection, schedule: Q04DX003 (ip), vehicle: saline with Tween-80
[8] = dose: 400.0 mg/kg/injection, schedule: Q04DX003 (ip), vehicle: saline with Tween-80
[9] = dose: 50.0 mg/kg/injection, schedule: Q01DX005 (ip), vehicle: Klucel (hydroxypropylcellulose) (HPC)
[10] = dose: 100.0 mg/kg/injection, schedule: Q01DX005 (ip), vehicle: Klucel (hydroxypropylcellulose) (HPC)
[11] = dose: 200.0 mg/kg/injection, schedule: Q01DX005 (ip), vehicle: Klucel (hydroxypropylcellulose) (HPC)
[12] = dose: 100.0 mg/kg/injection, schedule: Q01DX001 (ip), vehicle: Klucel (hydroxypropylcellulose) (HPC)
[13] = dose: 200.0 mg/kg/injection, schedule: Q01DX001 (ip), vehicle: Klucel (hydroxypropylcellulose) (HPC)
[14] = dose: 50.0 mg/kg/injection, schedule: Q01DX009 (ip), vehicle: Klucel (hydroxypropylcellulose) (HPC)
[15] = dose: 100.0 mg/kg/injection, schedule: Q01DX009 (ip), vehicle: Klucel (hydroxypropylcellulose) (HPC)
[16] = dose: 50.0 mg/kg/injection, schedule: Q01DX009 (ip), vehicle: saline with Tween-80
[17] = dose: 100.0 mg/kg/injection, schedule: Q01DX009 (ip), vehicle: saline with Tween-80
[18] = dose: 50.0 mg/kg/injection, schedule: Q04DX002 (ip), vehicle: saline
[19] = dose: 100.0 mg/kg/injection, schedule: Q04DX002 (ip), vehicle: saline
[20] = dose: 200.0 mg/kg/injection, schedule: Q04DX002 (ip), vehicle: saline
[21] = dose: 50.0 mg/kg/injection, schedule: Q01DX009 (ip), vehicle: saline
[22] = dose: 100.0 mg/kg/injection, schedule: Q01DX009 (ip), vehicle: saline
[23] = dose: 200.0 mg/kg/injection, schedule: Q01DX009 (ip), vehicle: saline

SMILES: CC[C@@H](C)[C@H]([C@H](CC(=O)N1CCC[C@@H]1[C@@H](OC)[C@H](C)C(=O)N[C@H](Cc1ccccc1)c1nccs1)OC)N(C)C(=O)[C@H](NC(=O)[C@@H](C(C)C)N(C)C)C(C)C
- T/C (dose: 6.5 micrograms/kg/injection, schedule: Q01DX005 (ip), vehicle: saline + alcohol): 155 % of control
- T/C (dose: 13.5 micrograms/kg/injection, schedule: Q01DX009 (ip), vehicle: saline + alcohol): 173 % of control

SMILES: Cc1nn(C(=S)S)c(C)c1N=Nc1cc(Cl)ccc1Cl
- T/C [1]: 100 % of control
- T/C [2]: 95 % of control
- T/C [3]: 95 % of control

SMILES: O=C1c2cccc3cccc(c23)C(=O)N1CCNCCN1C(=O)c2cccc3cccc(c23)C1=O
- T/C [4]: 91 % of control
- T/C [5]: 88 % of control

SMILES: Cc1cc2ncnn2cn1
- T/C [6]: 99 % of control
- T/C [7]: 99 % of control
- T/C [8]: 93 % of control

SMILES: O=c1cc(-c2ccccc2)ss1
- T/C (dose: 100.0 mg/kg/injection, schedule: Q01DX009 (ip), vehicle: other): 110 % of control
- T/C (dose: 200.0 mg/kg/injection, schedule: Q01DX009 (ip), vehicle: other): 110 % of control

SMILES: N#CCS(=O)(=O)c1cccc[n+]1[O-]
- T/C [1]: 107 % of control and 115 % of control
- T/C [2]: 118 % of control and 122 % of control
- T/C [3]: 123 % of control

SMILES: COc1ccc2c(c1)OC(C)(C)C(c1ccccc1)=C2c1ccc(O)c([N+](=O)[O-])c1
- T/C [1]: 100 % of control
- T/C [2]: 101 % of control
- T/C [3]: 102 % of control

SMILES: O=C(O)c1ccc(-c2c3ccc(=O)cc-3oc3cc(O)ccc23)cc1
- T/C (dose: 60.0 mg/kg/injection, schedule: Q01DX005 (ip), vehicle: Klucel (hydroxypropylcellulose) (HPC)): 100 % of control
- T/C (dose: 120.0 mg/kg/injection, schedule: Q01DX005 (ip), vehicle: Klucel (hydroxypropylcellulose) (HPC)): 97 % of control
- T/C (dose: 240.0 mg/kg/injection, schedule: Q01DX005 (ip), vehicle: Klucel (hydroxypropylcellulose) (HPC)): 100 % of control

SMILES: CC(C)N1C(=O)NC2C1NC(=O)N2C(C)C (centres undefined) (tested in a mixture with another compound)
- T/C [4]: 106 % of control
- T/C (dose: 120.0 mg/kg/injection, schedule: Q01DX005 (ip), vehicle: saline with Tween-80): 105 % of control
- T/C [5]: 105 % of control

SMILES: Cc1ccc(S(=O)(=O)OC2C(OCc3ccccc3)C(OCc3ccccc3)C3CON(C)C32)cc1 (centres undefined)
- T/C [9]: 86 % of control
- T/C [10]: 89 % of control
- T/C [11]: 92 % of control

SMILES: Cc1ccc(S(=O)(=O)Nn2nnnc2N)cc1
- T/C [12]: 102 % of control
- T/C [13]: 100 % of control
- T/C (dose: 400.0 mg/kg/injection, schedule: Q01DX001 (ip), vehicle: Klucel (hydroxypropylcellulose) (HPC)): 100 % of control

SMILES: CN1C2=NCCN2C(=O)c2cc(Cl)ccc21
- T/C [14]: 105 % of control
- T/C [15]: 98 % of control

SMILES: COc1nc(N)c(NC(C)=O)c(=O)n1C
- T/C (dose: 60.0 mg/kg/injection, schedule: Q01DX005 (ip), vehicle: saline): 96 % of control
- T/C (dose: 120.0 mg/kg/injection, schedule: Q01DX005 (ip), vehicle: saline): 96 % of control
- T/C (dose: 240.0 mg/kg/injection, schedule: Q01DX005 (ip), vehicle: saline): 93 % of control

SMILES: O=C1OCC2=Nc3cccc4cccc(c34)N12
- T/C [9]: 101 % of control
- T/C [10]: 94 % of control
- T/C [11]: 98 % of control

SMILES: COc1ccc(-c2nc3ccccc3[nH]2)cc1
- T/C (dose: 50.0 mg/kg/injection, schedule: Q04DX003 (ip), vehicle: saline with Tween-80): 103 % of control
- T/C [6]: 106 % of control
- T/C [7]: 102 % of control
- T/C [8]: 120 % of control

SMILES: Cc1[nH]c2c(-c3ccccc3)c3cc(Cl)ccc3nc2c1C(=O)O
- T/C (dose: 25.0 mg/kg/injection, schedule: Q01DX009 (ip), vehicle: Klucel (hydroxypropylcellulose) (HPC)): 92 % of control
- T/C [14]: 89 % of control
- T/C [15]: 86 % of control

SMILES: CCCCCCCC/C=C\CCCCCCCCN1CC(C(=O)[O][Pb]([CH2]C)([CH2]C)[CH2]C)CC1=O (centres undefined)
- T/C (dose: 0.75 mg/kg/injection, schedule: Q01DX009 (ip), vehicle: saline with Tween-80): 105 % of control
- T/C (dose: 1.5 mg/kg/injection, schedule: Q01DX009 (ip), vehicle: saline with Tween-80): 105 % of control
- T/C (dose: 6.0 mg/kg/injection, schedule: Q01DX009 (ip), vehicle: saline with Tween-80): 115 % of control

SMILES: CC(C)c1ccc(C2OCC(C)(C)C(C(C)C)O2)cc1 (centres undefined)
- T/C [6]: 108 % of control
- T/C [7]: 105 % of control
- T/C [8]: 109 % of control

SMILES: C=CCC1(O)CC2NC(C1)[C@@H]1OC(C)(C)O[C@H]21 (some centres undefined)
- T/C [9]: 92 % of control
- T/C [10]: 87 % of control
- T/C [11]: 94 % of control

SMILES: CCCCn1c(=O)cc(C(=O)O)[nH]c1=O
- T/C [16]: 104 % of control
- T/C [17]: 100 % of control
- T/C (dose: 200.0 mg/kg/injection, schedule: Q01DX009 (ip), vehicle: saline with Tween-80): 94 % of control

SMILES: N#CC1=NOC(C(N)C(=O)O)C1 (centres undefined)
- T/C [18]: 103 % of control
- T/C [19]: 100 % of control
- T/C [20]: 98 % of control

SMILES: O=c1cccccc1Cl
- T/C [16]: 104 % of control
- T/C [17]: 101 % of control

SMILES: C/C=C/C(=O)Nc1ncc([N+](=O)[O-])s1
- T/C [14]: 111 % of control
- T/C [15]: 114 % of control
- T/C (dose: 200.0 mg/kg/injection, schedule: Q01DX009 (ip), vehicle: Klucel (hydroxypropylcellulose) (HPC)): 113 % of control

SMILES: C=C(C[N+](C)(C)C)c1ccc([N+](=O)[O-])cc1
- T/C [9]: 102 % of control

SMILES: C=C[Se](=C(C#N)C#N)c1ccccc1 (centres undefined)
- T/C (dose: 25.0 mg/kg/injection, schedule: Q04DX002 (ip), vehicle: saline): 111 % of control
- T/C [18]: 104 % of control
- T/C [19]: 99 % of control and 101 % of control
- T/C [20]: 110 % of control
- T/C (dose: 400.0 mg/kg/injection, schedule: Q04DX002 (ip), vehicle: saline): 118 % of control

SMILES: O=c1c2ccccc2c2nc3ccccc3nc2c2ccccc12
- T/C (dose: 25.0 mg/kg/injection, schedule: Q01DX005 (ip), vehicle: saline with Tween-80): 91 % of control
- T/C [1]: 97 % of control
- T/C [2]: 96 % of control

SMILES: NC1CN2CCC1CC2 (centres undefined)
- T/C [21]: 104 % of control
- T/C [22]: 107 % of control
- T/C [23]: 98 % of control

SMILES: O=[N+]([O-])c1cccc2nc(-c3ccccn3)n(CCc3ccncc3)c12
- T/C (dose: 50.0 mg/kg/injection, schedule: Q01DX001 (ip), vehicle: Klucel (hydroxypropylcellulose) (HPC)): 104 % of control
- T/C [12]: 104 % of control
- T/C [13]: 101 % of control

SMILES: CCCCCCCCCCCCCC[N+]1([O-])CCCCCC1
- T/C [21]: 90 % of control

SMILES: COc1cc2cc3c4cc5c(cc4cc[n+]3c(C)c2cc1OC)OCO5 (tested in a mixture with another compound)
- T/C (dose: 15.0 mg/kg/injection, schedule: Q04DX003 (ip), vehicle: saline): 153 % of control

SMILES: O=C(O)c1nn(-c2ccccc2-c2n[nH]c(=O)[nH]c2=O)c(=O)[nH]c1=O
- T/C [1]: 101 % of control
- T/C [2]: 90 % of control
- T/C [3]: 95 % of control

SMILES: CN(OC(=O)C(C)(C)C)C(=O)C(C)(C)C
- T/C [2]: 106 % of control
- T/C [3]: 105 % of control
- T/C (dose: 400.0 mg/kg/injection, schedule: Q01DX005 (ip), vehicle: saline with Tween-80): 108 % of control

SMILES: NC(=O)C1CCC(c2ccccc2)(c2ccccc2)C1=O (centres undefined)
- T/C (dose: 100.0 mg/kg/injection, schedule: Q04DX002 (ip), vehicle: saline with Tween-80): 99 % of control
- T/C (dose: 200.0 mg/kg/injection, schedule: Q04DX002 (ip), vehicle: saline with Tween-80): 105 % of control
- T/C (dose: 400.0 mg/kg/injection, schedule: Q04DX002 (ip), vehicle: saline with Tween-80): 101 % of control

SMILES: O=C(NS(=O)C1C=CCCC1)OC1CCCCC1c1ccccc1 (centres undefined)
- T/C [1]: 99 % of control
- T/C [2]: 100 % of control
- T/C [3]: 105 % of control

SMILES: CC(=O)c1ccc2c(=O)c(C(=O)O)c[nH]c2c1
- T/C (dose: 12.5 mg/kg/injection, schedule: Q01DX009 (ip), vehicle: saline with Tween-80): 87 % of control
- T/C (dose: 25.0 mg/kg/injection, schedule: Q01DX009 (ip), vehicle: saline with Tween-80): 91 % of control
- T/C [21]: 108 % of control
- T/C [22]: 98 % of control
- T/C [23]: 104 % of control
